Results as given in the supplement of paper PMC10307832.

Tests used:
Assay in all cases: relative viability (nuclei count vs DMSO), 5 days (fraction); higher = more cells survive
GW-2580 + Pemetrexed = compound: COC1=CC=C(C=C1)COC2=C(C=C(C=C2)CC3=CN=C(N=C3N)N)OC [GW-2580] + Nc1nc2[nH]cc(CCc3ccc(C(=O)N[C@@H](CCC(=O)O)C(=O)O)cc3)c2c(=O)[nH]1 [Pemetrexed] (partner 0.2 µM)
In short: (§1)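 Five library-drug doses in √10 steps were combined with a fixed anchor-drug dose, or a single drug was given alone, by pin tool to lung cancer cell lines in 1536-well plates the day after seeding. Nuclei were stained and counted after 5 days. Relative viability is the nuclei count in treated wells over that in vehicle wells, taken as the median of duplicate plates.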

Fedratinib + Trametinib = compound: Cc1cnc(Nc2ccc(OCCN3CCCC3)cc2)nc1Nc1cccc(S(=O)(=O)NC(C)(C)C)c1 [Fedratinib] + CC(=O)Nc1cccc(-n2c(=O)n(C3CC3)c(=O)c3c(Nc4ccc(I)cc4F)n(C)c(=O)c(C)c32)c1 [Trametinib] (partner 0.02 µM)
In short: as §1

GW-2580 + Decitabine = compound: COC1=CC=C(C=C1)COC2=C(C=C(C=C2)CC3=CN=C(N=C3N)N)OC [GW-2580] + Nc1ncn([C@H]2C[C@H](O)[C@@H](CO)O2)c(=O)n1 [Decitabine] (partner 2 µM)
In short: as §1

GW-2580 + Tozasertib = compound: COC1=CC=C(C=C1)COC2=C(C=C(C=C2)CC3=CN=C(N=C3N)N)OC [GW-2580] + Cc1cc(Nc2cc(N3CCN(C)CC3)nc(Sc3ccc(NC(=O)C4CC4)cc3)n2)n[nH]1 [Tozasertib] (partner 0.1 µM)
In short: as §1

Fedratinib + AZD7762 = compound: Cc1cnc(Nc2ccc(OCCN3CCCC3)cc2)nc1Nc1cccc(S(=O)(=O)NC(C)(C)C)c1 [Fedratinib] + NC(=O)Nc1cc(-c2cccc(F)c2)sc1C(=O)N[C@H]1CCCNC1 [AZD7762] (partner 0.2 µM)
In short: as §1

Cell Line	relative viability (GW-2580 + Pemetrexed; first compound 0.08 µM)	relative viability (GW-2580 + Pemetrexed; first compound 0.8 µM)	relative viability (GW-2580 + Pemetrexed; first compound 2.53 µM)	relative viability (GW-2580 + Pemetrexed; first compound 8 µM)	relative viability (Fedratinib + Trametinib; first compound 0.1 µM)	relative viability (Fedratinib + Trametinib; first compound 0.3162 µM)	relative viability (Fedratinib + Trametinib; first compound 1 µM)	relative viability (GW-2580 + Decitabine; first compound 0.08 µM)	relative viability (GW-2580 + Decitabine; first compound 0.8 µM)	relative viability (GW-2580 + Decitabine; first compound 2.53 µM)	relative viability (GW-2580 + Decitabine; first compound 8 µM)	relative viability (GW-2580 + Tozasertib; first compound 0.08 µM)	relative viability (GW-2580 + Tozasertib; first compound 0.8 µM)	relative viability (GW-2580 + Tozasertib; first compound 2.53 µM)	relative viability (GW-2580 + Tozasertib; first compound 8 µM)	relative viability (Fedratinib + AZD7762; first compound 0.1 µM)	relative viability (Fedratinib + AZD7762; first compound 0.3162 µM)	relative viability (Fedratinib + AZD7762; first compound 1 µM)
HOP-62	0.394	0.285	0.303	0.288	0.355	0.392	0.393	0.174	0.192	0.231	0.23	0.404	0.374	0.333	0.326	0.734	0.566	0.555
LC-2-ad	0.268	0.285	0.253	0.278	0.898	0.904	0.933	0.82	0.913	0.833	0.815	0.501	0.412	0.405	0.475	0.829	0.863	0.818
LCLC-97TM1	0.158	0.143	0.179	0.172	0.234	0.202	0.18	0.241	0.224	0.213	0.209	0.289	0.161	0.154	0.261	0.342	0.154	0.21
LCLC-103H	0.452	0.416	0.447	0.5	0.699	0.683	0.659	0.752	0.724	0.661	0.706	0.555	0.432	0.484	0.396	0.857	0.72	0.647
LK-2	0.287	0.283	0.245	0.295	0.799	0.8	0.605	0.227	0.3	0.253	0.334	0.173	0.166	0.192	0.171	0.286	0.393	0.293
LOU-NH91	0.349	0.381	0.399	0.412	0.753	0.781	0.752	0.82	0.861	0.782	0.905	0.687	0.657	0.625	0.589	0.594	0.857	0.658
LU99A	0.246	0.176	0.193	0.17	0.577	0.593	0.477	0.924	1.05	0.812	0.952	0.27	0.294	0.23	0.235	0.322	0.325	0.272
NCI-H520	0.7	0.579	0.598	0.554	0.476	0.801	0.63	0.501	0.489	0.524	0.545	0.421	0.459	0.443	0.46			
NCI-H661	1.04	0.901	0.957	0.782	0.511	0.622	0.409	0.597	0.542	0.516	0.546	0.34	0.344	0.367	0.336			
NCI-H727					0.38	0.426	0.392	0.784	1.12	0.808	0.768	0.67	0.621	0.515	0.551	0.639	0.465	0.576
NCI-H1563	0.763	0.883	0.674	0.792														
NCI-H1623												0.631	0.416	0.594	0.486			
NCI-H1650	0.468	0.391	0.418	0.371	0.534	0.545	0.642	0.502	0.396	0.468	0.372	0.455	0.543	0.452	0.363			
NCI-H1703																0.126	0.138	0.121
NCI-H1792	0.843	0.773	0.688	0.644	0.365	0.364	0.449	0.574	0.546	0.387	0.502					0.58	0.774	0.483
NCI-H2009	1.06	1.11	0.945	0.843	0.204	0.286	0.216	0.415	0.427	0.378	0.482	0.744	0.828	0.715	0.707			
NCI-H2023	0.344	0.279	0.238	0.205	0.588	0.626	0.488	0.22	0.239	0.222	0.296	0.475	0.431	0.522	0.342			
NCI-H2228	0.408	0.306	0.338	0.327	0.629	0.306	0.404					0.28	0.351	0.226	0.235			
SK-LU-1	1.09	1.05	0.878	0.996	0.498	0.454	0.479	0.631	0.673	0.55	0.668	0.362	0.338	0.272	0.292			
SK-MES-1	1.01	1.04	0.878	0.824	0.547	0.581	0.476	0.361	0.399	0.309	0.422	1.06	1.06	0.88	0.816			
SW 1573	0.908	0.883	0.861	0.639	0.489	0.538	0.402	0.498	0.58	0.422	0.537	0.183	0.2	0.219	0.24			
